According to patent US10723724B2, “Compounds for treating degenerative diseases of central nervous system or brain tumor, and uses thereof” (SUN YAT-SEN UNIVERSITY, priority 2016, dated 2020):

What was measured:
PLK4 = target: T1, PLK4 (Homo sapiens, UniProt O00444); assay: Kinase screening service: PLK4; type: biochemical; details: average of duplicates
T1 construct: purchased Life Technologies Corporation (Kinase Screening Service)
Description: (§1) The inhibitory effect of PT109 on other kinases including SGK and JNK was detected by the Kinase Screening Service of Life Technologies Corporation (The concentration of compound 9 was 10 μM, measurements were performed in duplicates, and the value was represented by an average) to investigate the selectivity of the compound for JNK and SGK1.

ADRBK1 (GRK2) = target: T2, ADRBK1 (GRK2) (Homo sapiens, UniProt P25098); assay: Kinase screening service: ADRBK1; type: biochemical; details: average of duplicates
T2 construct: purchased Life Technologies Corporation (Kinase Screening Service)
Description: as §1

WNK2 = target: T3, WNK2 (Homo sapiens, UniProt Q9Y3S1); assay: Kinase screening service: WNK2; type: biochemical; details: average of duplicates
T3 construct: purchased Life Technologies Corporation (Kinase Screening Service)
Description: as §1

PDGFRB (PDGFR beta) = target: T4, PDGFRB (PDGFR beta) (Homo sapiens, UniProt P09619); assay: Kinase screening service: PDGFRB; type: biochemical; details: average of duplicates
T4 construct: purchased Life Technologies Corporation (Kinase Screening Service)
T4 sequence (P09619 33-1106): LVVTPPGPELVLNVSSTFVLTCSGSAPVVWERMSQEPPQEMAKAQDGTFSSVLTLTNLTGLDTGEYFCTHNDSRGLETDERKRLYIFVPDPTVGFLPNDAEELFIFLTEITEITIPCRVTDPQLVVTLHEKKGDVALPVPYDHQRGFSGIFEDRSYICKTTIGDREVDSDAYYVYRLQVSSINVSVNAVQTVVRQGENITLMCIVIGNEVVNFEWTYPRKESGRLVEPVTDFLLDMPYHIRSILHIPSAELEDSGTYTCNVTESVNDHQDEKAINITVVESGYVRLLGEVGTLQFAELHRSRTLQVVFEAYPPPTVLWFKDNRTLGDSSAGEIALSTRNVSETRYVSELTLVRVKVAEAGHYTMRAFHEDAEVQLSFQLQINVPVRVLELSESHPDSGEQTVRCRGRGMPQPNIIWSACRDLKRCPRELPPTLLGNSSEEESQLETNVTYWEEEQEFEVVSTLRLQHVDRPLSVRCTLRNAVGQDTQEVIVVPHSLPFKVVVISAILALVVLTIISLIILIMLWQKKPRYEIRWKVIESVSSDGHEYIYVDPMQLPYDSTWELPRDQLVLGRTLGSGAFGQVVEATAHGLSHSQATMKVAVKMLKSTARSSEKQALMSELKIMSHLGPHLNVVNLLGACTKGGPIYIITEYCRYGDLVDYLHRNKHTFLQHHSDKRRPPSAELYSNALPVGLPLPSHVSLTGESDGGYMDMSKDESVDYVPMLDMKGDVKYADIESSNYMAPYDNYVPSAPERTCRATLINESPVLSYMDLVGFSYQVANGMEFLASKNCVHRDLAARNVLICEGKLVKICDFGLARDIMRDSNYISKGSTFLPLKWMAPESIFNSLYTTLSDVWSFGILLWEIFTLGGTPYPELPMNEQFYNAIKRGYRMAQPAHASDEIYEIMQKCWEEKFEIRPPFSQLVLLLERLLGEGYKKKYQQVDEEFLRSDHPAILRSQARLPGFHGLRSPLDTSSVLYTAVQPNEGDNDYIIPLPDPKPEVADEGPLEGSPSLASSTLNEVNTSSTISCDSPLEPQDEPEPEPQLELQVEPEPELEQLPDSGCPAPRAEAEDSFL
Description: as §1

[1] = In vitro blood-brain barrier permeability (PBL artificial membrane); type: in vitro ADME
Description: 1) 4 μL of 2% PBL solution was added to the hydrophobic membrane of a MAIPn 4550 96-well plate. During the dripping process, it should be noted that the pipette tip should not touch the surface of the membrane to avoid the damage to the membrane structure.
2) 200 μL of the test sample solution (0.1 mg/ml) was quickly (within 10 min) and quantitatively pipetted, and added to the upside of the membrane of the 96-well plate as a donor compartment. 200 μL of PBS (pH=7.4) was added to the other side of the membrane as an acceptor compartment. It should be noted that the acceptor solution should keep being in full contact with the membrane.
3) The donor compartment was carefully removed upon standing for 120 min at room temperature, and the absorbance of the compound (250-500 nm) in the acceptor compartment was tested by UV spectrometer.
4) 100 μL of the test sample solution was fully mixed with 100 μL of PBS, and the mixture was used as a theoretical equilibrium solution. Its absorbance (250-500 nm) was measured and tested with an acceptor plate.
5) The log Pe value was calculated by the following equation: […]
wherein Vd is the volume of the donor compartment, Va is the volume of the acceptor compartment, A is the membrane area, t is the penetration time, [drug]acceptor is the absorbance of the acceptor compartment, and [drug]equilibrium is the absorbance of theoretical equilibrium. […]

MAP3K5 (ASK1) = target: T5, MAP3K5 (ASK1) (Homo sapiens, UniProt Q99683); assay: Kinase screening service: MAP3K5; type: biochemical; details: average of duplicates
T5 construct: purchased Life Technologies Corporation (Kinase Screening Service)
T5 sequence (Q99683 whole entry): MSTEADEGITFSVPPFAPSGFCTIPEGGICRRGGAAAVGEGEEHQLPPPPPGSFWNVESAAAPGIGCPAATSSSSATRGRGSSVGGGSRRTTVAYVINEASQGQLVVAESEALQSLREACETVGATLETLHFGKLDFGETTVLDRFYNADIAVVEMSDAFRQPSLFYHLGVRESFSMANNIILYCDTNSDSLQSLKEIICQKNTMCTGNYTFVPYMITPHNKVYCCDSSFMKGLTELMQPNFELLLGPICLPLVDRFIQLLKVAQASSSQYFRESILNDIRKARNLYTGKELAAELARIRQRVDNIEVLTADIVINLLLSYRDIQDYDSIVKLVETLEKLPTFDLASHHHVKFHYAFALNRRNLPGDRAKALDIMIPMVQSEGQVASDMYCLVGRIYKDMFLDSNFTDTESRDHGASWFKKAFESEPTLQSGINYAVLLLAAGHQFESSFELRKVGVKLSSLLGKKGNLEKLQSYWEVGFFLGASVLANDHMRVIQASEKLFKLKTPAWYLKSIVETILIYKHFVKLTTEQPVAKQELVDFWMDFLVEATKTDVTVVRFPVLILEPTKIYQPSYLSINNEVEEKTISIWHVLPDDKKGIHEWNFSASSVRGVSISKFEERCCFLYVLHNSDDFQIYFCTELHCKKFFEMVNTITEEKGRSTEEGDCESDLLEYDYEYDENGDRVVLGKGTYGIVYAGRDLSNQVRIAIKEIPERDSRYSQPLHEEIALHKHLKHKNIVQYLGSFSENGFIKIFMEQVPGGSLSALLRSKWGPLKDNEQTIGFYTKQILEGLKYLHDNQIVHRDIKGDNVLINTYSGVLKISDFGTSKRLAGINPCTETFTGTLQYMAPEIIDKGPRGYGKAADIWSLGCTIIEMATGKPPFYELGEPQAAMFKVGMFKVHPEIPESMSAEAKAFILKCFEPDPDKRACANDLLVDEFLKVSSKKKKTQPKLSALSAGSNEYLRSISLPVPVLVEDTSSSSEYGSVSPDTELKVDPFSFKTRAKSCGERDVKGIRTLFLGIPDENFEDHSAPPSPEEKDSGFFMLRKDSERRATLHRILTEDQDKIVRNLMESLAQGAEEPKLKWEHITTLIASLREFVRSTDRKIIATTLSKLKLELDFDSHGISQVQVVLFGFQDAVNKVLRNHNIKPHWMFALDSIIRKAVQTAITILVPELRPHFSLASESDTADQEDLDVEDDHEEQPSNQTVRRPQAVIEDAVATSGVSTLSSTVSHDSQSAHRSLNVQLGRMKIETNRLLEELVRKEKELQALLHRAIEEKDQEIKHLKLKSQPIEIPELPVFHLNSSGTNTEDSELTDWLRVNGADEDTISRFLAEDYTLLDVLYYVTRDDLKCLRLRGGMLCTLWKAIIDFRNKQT
Description: as §1

PHKG1 = target: T6, PHKG1 (Homo sapiens, UniProt Q16816); assay: Kinase screening service: PHKG1; type: biochemical; details: average of duplicates
T6 construct: purchased Life Technologies Corporation (Kinase Screening Service)
Description: as §1

PRKCG (PKC gamma) = target: T7, PRKCG (PKC gamma) (Homo sapiens, UniProt P05129); assay: Kinase screening service: PRKCG; type: biochemical; details: average of duplicates
T7 construct: purchased Life Technologies Corporation (Kinase Screening Service)
Description: as §1

MAP3K3 (MEKK3) = target: T8, MAP3K3 (MEKK3) (Homo sapiens, UniProt Q99759); assay: Kinase screening service: MAP3K3; type: biochemical; details: average of duplicates
T8 construct: purchased Life Technologies Corporation (Kinase Screening Service)
Description: as §1

CSNK2A2 (CK2 alpha 2) = target: T9, CSNK2A2 (CK2 alpha 2) (Homo sapiens, UniProt P19784); assay: Kinase screening service: CSNK2A2; type: biochemical; details: average of duplicates
T9 construct: purchased Life Technologies Corporation (Kinase Screening Service)
Description: as §1

PTK2B (FAK2) = target: T10, PTK2B (FAK2) (Homo sapiens, UniProt Q14289); assay: Kinase screening service: PTK2B; type: biochemical; details: average of duplicates
T10 construct: purchased Life Technologies Corporation (Kinase Screening Service)
Description: as §1

PTK6 (Brk) = target: T11, PTK6 (Brk) (Homo sapiens, UniProt Q13882); assay: Kinase screening service: PTK6; type: biochemical; details: average of duplicates
T11 construct: purchased Life Technologies Corporation (Kinase Screening Service)
Description: as §1

SRMS (Srm) = target: T12, SRMS (Srm) (Homo sapiens, UniProt Q9H3Y6); assay: Kinase screening service: SRMS; type: biochemical; details: average of duplicates
T12 construct: purchased Life Technologies Corporation (Kinase Screening Service)
T12 sequence (Q9H3Y6 whole entry): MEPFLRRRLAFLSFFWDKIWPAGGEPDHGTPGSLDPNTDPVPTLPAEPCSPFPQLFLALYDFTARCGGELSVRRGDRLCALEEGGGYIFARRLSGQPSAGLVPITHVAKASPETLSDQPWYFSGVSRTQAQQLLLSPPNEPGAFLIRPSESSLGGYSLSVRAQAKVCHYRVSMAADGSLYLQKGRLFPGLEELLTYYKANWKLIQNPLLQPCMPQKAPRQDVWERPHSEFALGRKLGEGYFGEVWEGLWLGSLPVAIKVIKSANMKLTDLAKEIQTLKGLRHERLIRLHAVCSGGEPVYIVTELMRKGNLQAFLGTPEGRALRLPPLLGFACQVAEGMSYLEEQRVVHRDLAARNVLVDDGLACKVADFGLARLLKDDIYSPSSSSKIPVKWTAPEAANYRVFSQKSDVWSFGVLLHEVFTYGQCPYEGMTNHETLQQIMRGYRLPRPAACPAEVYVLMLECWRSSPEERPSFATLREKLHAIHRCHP
Description: as §1

PDK1 = target: T13, PDK1 (Homo sapiens, UniProt O15530); assay: Kinase screening service: PDK1; type: biochemical; details: average of duplicates
T13 construct: purchased Life Technologies Corporation (Kinase Screening Service)
Description: as §1

HCK = target: T14, HCK (Homo sapiens, UniProt P08631); assay: Kinase screening service: HCK; type: biochemical; details: average of duplicates
T14 construct: purchased Life Technologies Corporation (Kinase Screening Service)
T14 sequence (P08631 whole entry): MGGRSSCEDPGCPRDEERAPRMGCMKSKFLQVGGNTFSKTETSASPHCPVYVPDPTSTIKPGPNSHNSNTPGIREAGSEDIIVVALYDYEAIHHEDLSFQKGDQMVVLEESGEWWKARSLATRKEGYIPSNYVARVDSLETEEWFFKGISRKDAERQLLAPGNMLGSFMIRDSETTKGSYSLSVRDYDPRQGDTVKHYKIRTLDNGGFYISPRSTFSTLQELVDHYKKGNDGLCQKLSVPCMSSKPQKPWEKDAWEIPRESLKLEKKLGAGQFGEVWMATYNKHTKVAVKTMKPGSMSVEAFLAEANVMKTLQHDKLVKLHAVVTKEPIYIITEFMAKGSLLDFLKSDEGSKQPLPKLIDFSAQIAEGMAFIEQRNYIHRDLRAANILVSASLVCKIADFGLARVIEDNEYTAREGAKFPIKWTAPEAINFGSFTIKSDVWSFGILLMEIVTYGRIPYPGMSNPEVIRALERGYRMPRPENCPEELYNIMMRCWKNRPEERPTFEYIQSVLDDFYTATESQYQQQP
Description: as §1

PIK3C3 (hVPS34) = target: T15, PIK3C3 (hVPS34) (Homo sapiens, UniProt Q8NEB9); assay: Kinase screening service: PIK3C3; type: biochemical; details: average of duplicates
T15 construct: purchased Life Technologies Corporation (Kinase Screening Service)
Description: as §1

FGFR1 = target: T16, FGFR1 (Homo sapiens, UniProt P11362); assay: Kinase screening service: FGFR1; type: biochemical; details: average of duplicates
T16 construct: purchased Life Technologies Corporation (Kinase Screening Service)
Description: as §1

[2] = system: other kinases including SGK and JNK; assay: Kinase selectivity of PT109 (whole panel); type: biochemical; details: 10 μM, kinase panel of Table 2
Description: as §1

GSK3B (GSK3 beta) = target: T17, GSK3B (GSK3 beta) (Homo sapiens, UniProt P49841); assay: Kinase screening service: GSK3B; type: biochemical; details: average of duplicates
T17 construct: purchased Life Technologies Corporation (Kinase Screening Service)
Description: as §1

PI4KB (PI4K beta) = target: T18, PI4KB (PI4K beta) (Homo sapiens, UniProt Q9UBF8); assay: Kinase screening service: PI4KB; type: biochemical; details: average of duplicates
T18 construct: purchased Life Technologies Corporation (Kinase Screening Service)
Description: as §1

[3] = target: T19, MAP2K1 (MEK1) S218D S222D (Homo sapiens, UniProt Q02750, S218D/S222D); assay: Kinase screening service: MAP2K1 S218D S222D; type: biochemical; details: average of duplicates
T19 construct: purchased Life Technologies Corporation (Kinase Screening Service)
Description: as §1

MAPK8 (JNK1) = target: T20, MAPK8 (JNK1) (Homo sapiens, UniProt P45983); assay: Kinase screening service (Life Technologies): JNK1; type: biochemical
T20 construct: purchased Life Technologies Corporation (kinase screening service)
T20 sequence (P45983 whole entry): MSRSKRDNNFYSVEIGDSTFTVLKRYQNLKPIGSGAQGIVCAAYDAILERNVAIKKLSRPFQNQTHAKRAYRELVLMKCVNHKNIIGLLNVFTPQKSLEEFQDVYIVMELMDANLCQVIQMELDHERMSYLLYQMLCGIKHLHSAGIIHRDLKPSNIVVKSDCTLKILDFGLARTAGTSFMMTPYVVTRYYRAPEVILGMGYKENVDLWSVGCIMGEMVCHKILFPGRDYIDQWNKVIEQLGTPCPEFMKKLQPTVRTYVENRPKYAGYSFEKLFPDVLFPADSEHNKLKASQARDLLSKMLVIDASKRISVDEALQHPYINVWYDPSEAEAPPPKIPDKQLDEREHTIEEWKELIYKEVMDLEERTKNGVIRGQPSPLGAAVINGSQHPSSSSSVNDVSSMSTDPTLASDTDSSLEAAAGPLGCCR
Description: (§2) The inhibitory effect of PT109 on SGK and INK was detected by the kinase screening commercialization service of Life Technologies Corporation.
as §1

WNK3 = target: T21, WNK3 (Homo sapiens, UniProt Q9BYP7); assay: Kinase screening service: WNK3; type: biochemical; details: average of duplicates
T21 construct: purchased Life Technologies Corporation (Kinase Screening Service)
Description: as §1

CSNK1G3 (CK1 gamma 3) = target: T22, CSNK1G3 (CK1 gamma 3) (Homo sapiens, UniProt Q9Y6M4); assay: Kinase screening service: CSNK1G3; type: biochemical; details: average of duplicates
T22 construct: purchased Life Technologies Corporation (Kinase Screening Service)
Description: as §1

MAPK1 (ERK2) = target: T23, MAPK1 (ERK2) (Homo sapiens, UniProt P28482); assay: Kinase screening service: MAPK1; type: biochemical; details: average of duplicates
T23 construct: purchased Life Technologies Corporation (Kinase Screening Service)
Description: as §1

GRK5 = target: T24, GRK5 (Homo sapiens, UniProt P34947); assay: Kinase screening service: GRK5; type: biochemical; details: average of duplicates
T24 construct: purchased Life Technologies Corporation (Kinase Screening Service)
T24 sequence (P34947 whole entry): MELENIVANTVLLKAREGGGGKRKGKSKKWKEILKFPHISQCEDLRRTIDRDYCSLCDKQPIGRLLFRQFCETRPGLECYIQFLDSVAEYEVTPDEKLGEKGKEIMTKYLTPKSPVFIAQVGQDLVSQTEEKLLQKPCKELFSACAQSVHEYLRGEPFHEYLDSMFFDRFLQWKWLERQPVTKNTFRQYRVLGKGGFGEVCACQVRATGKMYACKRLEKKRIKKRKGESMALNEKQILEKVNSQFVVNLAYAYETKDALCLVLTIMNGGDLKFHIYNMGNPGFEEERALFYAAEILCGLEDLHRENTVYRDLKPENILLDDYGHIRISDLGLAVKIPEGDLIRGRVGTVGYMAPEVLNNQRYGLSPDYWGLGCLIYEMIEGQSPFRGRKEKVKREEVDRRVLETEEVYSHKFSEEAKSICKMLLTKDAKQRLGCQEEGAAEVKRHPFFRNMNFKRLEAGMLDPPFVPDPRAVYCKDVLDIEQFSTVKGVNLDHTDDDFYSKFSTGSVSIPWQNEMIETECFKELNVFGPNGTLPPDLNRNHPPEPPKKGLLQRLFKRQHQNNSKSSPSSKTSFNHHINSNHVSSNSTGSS
Description: as §1

RPS6KA3 (RSK2) = target: T25, RPS6KA3 (RSK2) (Homo sapiens, UniProt P51812); assay: Kinase screening service: RPS6KA3; type: biochemical; details: average of duplicates
T25 construct: purchased Life Technologies Corporation (Kinase Screening Service)
Description: as §1

MAPK10 (JNK3) = target: T26, MAPK10 (JNK3) (Homo sapiens, UniProt P53779); assay: Kinase screening service (Life Technologies): JNK3; type: biochemical; details: average of duplicates
T26 construct: purchased Life Technologies Corporation (kinase screening service)
T26 sequence (P53779 whole entry): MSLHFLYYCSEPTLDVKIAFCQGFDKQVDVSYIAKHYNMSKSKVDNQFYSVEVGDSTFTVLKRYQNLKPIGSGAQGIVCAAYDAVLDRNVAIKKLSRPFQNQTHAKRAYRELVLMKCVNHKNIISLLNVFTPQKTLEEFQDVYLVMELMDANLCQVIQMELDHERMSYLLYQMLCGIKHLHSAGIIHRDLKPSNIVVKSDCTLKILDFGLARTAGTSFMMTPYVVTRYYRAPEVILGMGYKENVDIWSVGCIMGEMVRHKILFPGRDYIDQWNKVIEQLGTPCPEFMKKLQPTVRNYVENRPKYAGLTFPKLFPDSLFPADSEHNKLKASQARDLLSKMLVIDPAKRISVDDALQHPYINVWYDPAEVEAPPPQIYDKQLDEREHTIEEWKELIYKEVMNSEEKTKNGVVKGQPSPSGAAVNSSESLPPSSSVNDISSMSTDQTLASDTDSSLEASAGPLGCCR
Description: as §2, §1

Q: What does the source list for `O=C(CCCCC1CCSS1)NC1CCC(Nc2cccc3cnccc23)CC1` (stereo not drawn) [PT109, 5-(1,2-dithiolan-3-yl)-N-(4-(isoquinolin-5-ylamino)cyclohexyl) pentanamide]?
A: inhibition at 10 µM (PLK4): 35%; inhibition at 10 µM (ADRBK1 (GRK2)): 6%; inhibition at 10 µM (WNK2): 13%; inhibition at 10 µM (PDGFRB (PDGFR beta)): 7%; Papp at 120 min, 0.1 mg/ml ([1]; PAMPA, PBL membrane, PBS pH=7.4, 120 min, room temperature, read-out: Pe): 11.93 ± 0.08 ×10⁻⁶ cm/s; Prediction ([1]; from Pe): CNS+ (If Pe×10^−6 cm s^−1 value is greater than 5.3, the compound is able to cross the blood-brain barrier); inhibition at 10 µM (MAP3K5 (ASK1)): 9%; inhibition at 10 µM (PHKG1): 10%; inhibition at 10 µM (PRKCG (PKC gamma)): 63%; inhibition at 10 µM (MAP3K3 (MEKK3)): 3%; inhibition at 10 µM (CSNK2A2 (CK2 alpha 2)): 11%; inhibition at 10 µM (PTK2B (FAK2)): 8%; inhibition at 10 µM (PTK6 (Brk)): 7%; inhibition at 10 µM (SRMS (Srm)): 20%; inhibition at 10 µM (PDK1): 5%; inhibition at 10 µM (HCK): 9%; inhibition at 10 µM (PIK3C3 (hVPS34)): 11%; inhibition at 10 µM (FGFR1): -3%; specificity for SGK1 and JNK [2]: better specificity for SGK1 and JNK; inhibition at 10 µM (GSK3B (GSK3 beta)): 61%; inhibition at 10 µM (PI4KB (PI4K beta)): 39%; inhibition at 10 µM [3]: 13%; IC50 (MAPK8 (JNK1)): 0.143 µM; inhibition at 10 µM (MAPK8 (JNK1); 10 μM, average of duplicates): 104%; inhibition at 10 µM (WNK3): 7%; inhibition at 10 µM (CSNK1G3 (CK1 gamma 3)): 24%; inhibition at 10 µM (MAPK1 (ERK2)): 4%; inhibition at 10 µM (GRK5): 2%; inhibition at 10 µM (RPS6KA3 (RSK2)): 54%; inhibition at 10 µM (MAPK10 (JNK3)): 90%
